According to patent US8188059B2, “Compounds and methods for modulating expression of GCGR” (Isis Pharmaceuticals, Inc., priority 2006, dated 2012):
Strand notation (5' to 3'): a small letter for the sugar, then the base; units joined by * are phosphorothioate-linked, units joined directly phosphodiester-linked; [ ] holds rarer units or linkages, { } end groups; capitals alone tell only the bases. e = 2'-O-(2-methoxyethyl) (MOE); [5mC] = 5-methylcytosine; d = 2'-deoxy (DNA)

Assays:
[1] = test system: PCSK9 mRNA; format: cell-based, human; conditions: Hep3B cells, 100 nM, relative to untreated control cells; for % Inhib (PCSK9 mRNA): 0 = no reduction observed
Method: When cells reached appropriate confluency, they were treated with oligonucleotide using LIPOFECTIN® as described. […] Cells were treated and data were obtained in duplicate or triplicate. […] Cells were harvested 16-24 hours after oligonucleotide treatment.
Short antisense compounds targeted to a PCSK9 nucleic acid were tested for their effects on PCSK9 mRNA in vitro. The Isis No, gapmer motif and SEQ ID NO of each short antisense compound are shown again in Table 75. Cultured Hep3B cells were treated with 100 nM of short antisense compound. 5-10-5 MOE gapmers targeted to a PCSK9 nucleic acid were used as positive controls. After the treatment period, RNA was isolated from the cells and PCSK9 mRNA levels were measured by quantitative real-time PCR, as described herein. PCSK9 mRNA levels were adjusted according to total RNA content as measured by RIBOGREEN®. Results are presented in Table 75 as percent inhibition of PCSK9 (% Inhib), relative to untreated control cells.

[2] = Triglyceride, cholesterol and glucose levels, pre-bleed and post-bleed (Example 4, Table 34); format: in vivo, mouse
Method: Eight-week old male C57/BL6 mice (Jackson Laboratory, Bar Harbor, Me.) were administered a single dose of GCGR oligonucleotide by intraperitoneal injection at a concentration of […]. Each dose group consisted of four animals. Shown in Table 31 are the sequences, motifs and conjugates of the GCGR antisense compounds used in this study. Bolded residues indicate 2′-O-methoxyethyl (2′-MOE) moieties. All compounds comprise phosphorothioate internucleoside linkages throughout and each cytosine is replaced with 5-methylcytosine. ISIS 386626, ISIS 386627 and ISIS 386628 further comprise a C16 conjugate group attached to the 2′-O position of the sugar via a diamide linkage (2′-OCH2C(═O)N(H)(CH2)4N(H)C(═O)—(CH2)15CH3). GCGR antisense compounds target published GCGR sequences, including Genbank® Accession No. BC031885.1 (SEQ ID NO: 7).
Mice were sacrificed 48 hours following injection to determine serum transaminase levels (Table 32); liver, white adipose tissue (WAT), spleen and kidney weight (Table 33); cholesterol, triglyceride and glucose levels (Table 34); GCGR mRNA levels (Tables 35-41); and full-length and total oligonucleotide concentration in liver and kidney (Table 42). Endpoints were assessed using methods described herein and well known to those of ordinary skill in the art. Data is included from a pre-treatment bleed (Pre-Bleed) and post-treatment bleed (Post-Bleed).

Substance | % Inhib (PCSK9 mRNA) [1] [%] | % Inhibition Range (PCSK9 mRNA) [1] | post-bleed glucose levels ([2]; C57/BL6 mice, single i.p. dose, 48 hours) | post-bleed triglyceride levels ([2]; relative to the 5-10-5 MOE gapmer)
400359 (antisense e[5mC]*eA*dT*dG*dG*d[5mC]*dA*dG*d[5mC]*dA*dG*dG*eA*eA) [compound 400359] | 0 |  |  | 
400360 (antisense eG*e[5mC]*dA*dT*dG*dG*d[5mC]*dA*dG*d[5mC]*dA*dG*eG*eA) [compound 400360] | 38 | 30-40% |  | 
400361 (antisense eG*eG*d[5mC]*dA*dG*d[5mC]*dA*dG*dA*dT*dG*dG*e[5mC]*eA) [compound 400361] | 2 |  |  | 
400362 (antisense e[5mC]*eG*dG*d[5mC]*dA*dG*d[5mC]*dA*dG*dA*dT*dG*eG*e[5mC]) [compound 400362] | 16 | 10-20% |  | 
400363 (antisense e[5mC]*e[5mC]*dG*dG*d[5mC]*dA*dG*d[5mC]*dA*dG*dA*dT*eG*eG) [compound 400363] | 8 |  |  | 
400364 (antisense eT*e[5mC]*d[5mC]*dG*dG*d[5mC]*dA*dG*d[5mC]*dA*dG*dA*eT*eG) [compound 400364] | 0 |  |  | 
400365 (antisense e[5mC]*eT*d[5mC]*d[5mC]*dG*dG*d[5mC]*dA*dG*d[5mC]*dA*dG*eA*eT) [compound 400365] | 25 | 20-30% |  | 
400366 (antisense eG*e[5mC]*dT*d[5mC]*d[5mC]*dG*dG*d[5mC]*dA*dG*d[5mC]*dA*eG*eA) [compound 400366] | 15 | 10-20% |  | 
400367 (antisense eG*eG*d[5mC]*dT*d[5mC]*d[5mC]*dG*dG*d[5mC]*dA*dG*d[5mC]*eA*eG) [compound 400367] | 12 | 10-20% |  | 
400368 (antisense e[5mC]*eG*dG*d[5mC]*dT*d[5mC]*d[5mC]*dG*dG*d[5mC]*dA*dG*e[5mC]*eA) [compound 400368] | 11 | 10-20% |  | 
400369 (antisense e[5mC]*e[5mC]*dG*dG*d[5mC]*dT*d[5mC]*d[5mC]*dG*dG*d[5mC]*dA*eG*e[5mC]) [compound 400369] | 0 |  |  | 
400370 (antisense eG*e[5mC]*d[5mC]*dG*dG*d[5mC]*dT*d[5mC]*d[5mC]*dG*dG*d[5mC]*eA*eG) [compound 400370] | 13 | 10-20% |  | 
400371 (antisense eA*eG*dT*dT*dA*d[5mC]*dA*dA*dA*dA*dG*d[5mC]*eA*eA) [compound 400371] | 0 |  |  | 
ISIS 386628: GCGR 2-10-2 MOE gapmer with C16 conjugate group at the 2′-O position via a diamide linkage (antisense TGTCTTGCTGCTTT; chemistry not fully specified) |  |  | generally led to a decrease | greatest dose-dependent effect
